Experimental data: US9884874B2, “Bromodomain-inhibiting compounds and pharmaceutical composition comprising same for preventing or treating a cancer” (KAINOS MEDICINE, INC., priority 2014, dated 2018)

Tests used:
[1] = tested on: MV4-11 human leukemia xenograft; experiment: Tumor growth inhibition in MV4-11 human leukemia mouse xenograft; type: in vivo, NOD/SCID mice; details: PO, 5 d ON/2 d Off × 2 (14 days)
Procedure: Tumor growth inhibition (TGI) activities of compound 1 were tested in MV4-11 human leukemia mouse xenograft.
(§1) A total of 48 NOD/SCID female mice of 6-8 weeks age and weighing approximately 18 to 22 g, purchased from HFK (Beijing HFK Bio-Technology Co. Ltd.), were used for tumor inoculation.
The MV4-11 cell line was maintained in vitro in IMDM (Iscove's modified Dulbecco's media) supplemented with 10% fetal bovine serum at 37° C. in an atmosphere of 5% CO2 in air. The tumor cells were routinely subcultured twice weekly by trypsin-EDTA treatment. The cells growing in an exponential growth phase were harvested and counted for tumor inoculation. The treatments were started when the tumor size reached approximately 150-200 mm^3.
Each mouse was inoculated subcutaneously at the right flank with MV4-11 tumor cells (1×10^7 cells) in mixture of 100 ul PBS and 100 ul of Matrigel™ for tumor development. A total of […] mice were used for each group. The amounts of treated compounds are represented in milligram (mg) of compound per kilogram (kg) of animal body weight (mg/kg, mpk). Administration route of the test compound was PO (oral) injection. […]
Tumor sizes were measured using a caliper, once every 4 days, and the tumor volume was expressed in mm^3 using Equation 1: V=0.5a×b^2 [Equation 1] […]

[2] = tested on: MOLT-4 (acute lymphoblastic leukemia); experiment: Anti-proliferative activity, MOLT-4; type: cell-based; details: Homo sapiens, read-out: Cell proliferation, IC50
[3] = Body weight change in MV4-11 xenograft mice; type: in vivo, NOD/SCID mice; details: 50 and 100 mpk, PO
Procedure: as §1
Each mouse was inoculated subcutaneously at the right flank with MV4-11 tumor cells (1×10^7 cells) in mixture of 100 ul PBS and 100 ul of Matrigel™ for tumor development. A total of […] mice were used for each group. The amounts of treated compounds are represented in milligram (mg) of compound per kilogram (kg) of animal body weight (mg/kg, mpk). Administration route of the test compound was PO (oral) injection. Three groups, i.e., vehicle group (Control group), 50 mpk group (treatment at 50 mpk of compound 1 through PO injection) and 100 mpk group (treatment at 100 mpk of compound 1 through PO injection) of mice were used. The overall administration schedule was 2 cycles of treatment for 5 days (5 d ON), followed by 2 days of non-treatment (2 d OFF).

[4] = Animal pharmacokinetics in ICR mice; type: in vivo; details: mouse; for AUC / MRT / clearance / bioavailability: ICR, in vivo
Procedure: Pharmacokinetics of the compounds of 1, 2, 7, 8 11 and 15 were evaluated in ICR mice (6˜8 weeks, 20˜25 g) following intravenous (IV) administration at 10 mg/kg and per oral (PO) administration at 10 mg/kg dose level, respectively. Especially, the additional dose level of Compound 1 was 30 mg/kg.
For serum compound analysis, blood samples were collected by cardiac puncture over 24 hr time course. 20 μL of spiked plasma was added into a 96-well plate, adding ten volumes of internal standard (IS) in acetonitrile (ACN) to the obtained precipitated protein mixed thoroughly, centrifuged at 4,000 rpm for 10 min. 150 μL of supernatant thus obtained was transferred to another pre-labeled 96-well plate, mixed with 150 μL of water. 5 μL or 10 μL of the mixture was injected into the LC-MS system under the following conditions:
Column: API-4000+Waters UPLC (TCLM08);
Lower limit of quantification (LLOQ) was at 1 ng/mL. Pharmacokinetic parameters of half-life (T1/2), clearance (CL), maximum plasma concentration (Cmax), mean residence time (MRT) and bioavailability (F %), plasma exposure (AUC) of the compound were calculated using Phoenix WinNonlin 6.3 (non-compartmental model).

[5] = tested on: OPM-2 (multiple myeloma); experiment: Anti-proliferative activity, OPM-2; type: cell-based; details: Homo sapiens, read-out: Cell proliferation, IC50
[6] = tested on: MOLM13 (acute myeloid Leukemia); experiment: Anti-proliferative activity, MOLM13; type: cell-based; details: Homo sapiens, MOLM-13, read-out: Cell proliferation, IC50
[7] = tested on: HL60 (acute promyelocytic leukemia); experiment: Anti-proliferative activity, HL60; type: cell-based; details: Homo sapiens, HL-60, read-out: Cell proliferation, IC50
[8] = tested on: MV4-11 (human leukemia cell line); experiment: Anti-proliferative activity test (CellTiter-Glo), MV4-11; type: cell-based; details: second value of LnCAP/MV4-11 cell, read-out: Cell proliferation IC50 (MV4-11)
Procedure: IC50 (uM) of the compounds obtained in Examples 1 to 18 against hematological cancer cells and solid tumors was measured for identifying anti-proliferative activities.
A human prostatic adenocarcinoma cell line, LnCAP (ATCC®, CRL-1740) and human leukemia cell line MV4-11 (ATCC®, CRL-9591) were used to test the degrees of the compounds 1 to 18 in inhibiting the cancer cell growth. The testing cell concentration was adjusted to 6.7×10^3 cells/ml with a culture medium supplemented with 10% FBS, in the temperature of 37° C., 5% CO2 and 95% humidity. Culture media and FBS were purchased from GIBCO. 90 μL of cell suspensions thus obtained was added to two 96-well plates with the final cell density of 600 cells/well, followed by addition of 10 μL of culture medium to each well of plate. The plates were incubated overnight in a humidified incubator at 37° C. with 5% CO2.
Compounds 1 to 18 were each dissolved with dimethylsulfoxide (DMSO) or phosphate buffer solution (PBS) as a stock solution, and 200× solutions of test compound (2 mM) using DMSO were prepared. Then, the DMSO solution thus obtained was diluted 20-fold with culture medium or PBS to obtain 10× working solution. 10 μL of 10× working solution (drug solution) was dispensed to each well (triplicate for each concentration). The final concentration of DMSO in culture medium was 0.5% [v/v].
Cell viability was determined using CellTiter-Glo® (CTG) assay. 100 μL of CellTiter-Glo® was added to the equal volume of the cultured cells to read luminescence in EnVision Multi Label Reader.

[9] = tested on: NCI-H526 (variant small cell lung cancer); experiment: Anti-proliferative activity, NCI-H526; type: cell-based; details: Homo sapiens, read-out: Cell proliferation, IC50

COc1ccc2c(c1)C(c1ccc(Cl)cc1)=N[C@@H](COS(C)(=O)=O)c1nnc(C)n1-2 [Compound 1, (R)-(6-(4-chlorophenyl)-8-methoxy-1-methyl-4H-benzo[f]-[1,2,4]triazolo[4,3-a][1,4]diazepin-4-yl)methyl methanesulfonate]
% TGI ([1]; 50 mpk): 77% | % TGI ([1]; 100 mpk): 84% | IC50 [2]: 2630 nM | BW change (%) (in words) [3]: very low | AUC ([4]; IV, 10 mg/kg): 74 µM·h | MRT ([4]; IV, 10 mg/kg): 4.7 h | clearance ([4]; IV, 10 mg/kg): 5.1 mL/min/kg | AUC ([4]; IV, 30 mg/kg): 302 µM·h | clearance ([4]; IV, 30 mg/kg): 3.7 mL/min/kg | AUC ([4]; PO, 10 mg/kg): 76 µM·h | MRT ([4]; PO, 10 mg/kg): 6.2 h | bioavailability ([4]; PO, 10 mg/kg): 103% | AUC ([4]; PO, 30 mg/kg): 260 µM·h | bioavailability ([4]; PO, 30 mg/kg): 86.2% | dose linearity in plasma exposure (in words) ([4]; FIG. 1, 10 and 30 mg/kg): good dose linearity in plasma exposure | IC50 [5]: 1450 nM | IC50 [6]: 1520 nM | IC50 [7]: 1240 nM | IC50 [8]: 310 nM | IC50 [9]: 2620 nM
